The results in this text go back to patent US20240299393A1, “SMALL MOLECULE DISRUPTORS OF PROTEIN INTERACTIONS IN HISTONE DEACETYLASE COMPLEXES” (Dana-Farber Cancer Institute, Inc., priority 2021, published 2024).

Assay [1] relates to PAH1 and PAH3 domains of human SIN3A and SIN3B. The assay can be described thus: Ligand-detected NMR, human SIN3A and SIN3B PAH1 and PAH3. The class given is binding, H. sapiens. Particulars: FIG. 28. The method, then: (§1) Ligand-detected NMR experiments: all results were acquired using a 3 mm tube at 25° C. on a Bruker 600 MHz Avance II system equipped with a CPPTCI cryoprobe (Bruker BioSpin Corp.). In all experiments, the concentration of E6R was fixed at 300 μM (from a stock of 25 mM in deuterated DMSO) and the concentration of the protein at 10 μM. The volume of deuterated DMSO was kept constant (1.5%) in all tested samples. Right before the experiments, the compound and protein were diluted in 1×PBS containing 0.1% deuterated dithiothreitol (DTT) to a total volume of 200 μL. Samples were diluted by 5% with D2O for magnetic field lock. Spectra were acquired for ligand only, protein only, and ligand+protein. […] STD experiments [Mayer et al 2001] were acquired with 160 scans, with protein irradiation applied for 3 s at 0 ppm and −20 ppm for the on and off resonance experiments, respectively. On and off resonance spectra were collected and stored separately. One-dimensional CPMG-R2 edited experiments [Hajduk et al 1997] were collected for samples with and without proteins using seven CPMG delays (0, 25, 50, 100, 300, 500, and 800 ms) with four scans per delay. Proton spectra used to measure DLB and chemical shift perturbations in the absence and presence of the proteins were recorded with 16 scans using a recycle delay of 3 s. […]

The subject of assay [2] is mouse frontal cortex transcriptome. The assay is described as follows: RNA-seq of mouse frontal cortex after chronic treatment. The class given is in vivo. Here is the method: For the pilot RT-qPCR experiment, in addition to the vehicle condition (ethanol 100%/kolliphor/saline 0.9% in a proportion of 1:1:14.4; for the 50 mg/kg dose, 14 μL NaOH 1M were also added), three doses (mg/kg) of E6R were tested: 5, 15, and 50, with 4 (vehicle) or 3 (E6R) animals per group. A dose of 50 mg/kg was picked to conduct further experiments. For the RNA-Seq experiment, E6R was dissolved in a vehicle solution containing saline 55% v/v, DMSO 34% v/v, ethanol 5% v/v, kolliphor EL (Sigma-Aldrich, MO, USA) 5% v/v, NaOH 1M 1% v/v. The vehicle group received the same solution. Animals were injected daily by intraperitoneal (I.P.) injection with 5 μL/g of the solution (50 mg/kg of the drug or vehicle) at 11 am for 10 days. Animal wellness was verified by daily visual inspection and weighing. […] On the 11th day, animals were sacrificed by bleeding via heart puncture under carbon dioxide anesthesia. The brains were quickly removed and the bilateral frontal cortex (bregma 1.90 to 1.40 mm) was dissected followed by total RNA extraction. The spleens were also collected in the pilot RT-qPCR experiments.
Qiagen™ RNeasy mini kits (Valencia, CA) were used following the manufacturer's protocol. Extracted RNA was further purified using Qiagen™ RNeasy Mini columns to eliminate any trace of DNA, and dissolve in nuclease-free water. Purity of the RNA preparation was determined as the 260/280 nm ratio with expected values between 2 and 2.3. Samples were stored at −80° C. before being used for RT-qPCR (pilot experiment), or shipped to the GENEWIZ company on dry ice for library construction and RNA sequencing.
RNA integrity (RIN) and yield were assessed on an Agilent 2100 Bioanalyzer, and samples with RIN larger than 7 were selected. Prior to the RNA-Seq, ribosomal RNA was depleted from the samples using the RiboMinus™ Human/Mouse Transcriptome Isolation Kit (Thermo Fisher Scientific, Waltham, MA). All samples were sequenced on an Illumina Hi-Seq sequencer. ˜29 million 50 bp single-end reads per sample were obtained. Sequencing adapters were removed using Trimmomatic v.0.33 [Bolger et al 2014]. Quality control at each processing step was performed using the FastQC tool v0.11.2 (quality base calls, GC content distribution, duplicate levels, complexity level) [Andrews 2010]. The Mouse GRCm38/mm10 reference genome was obtained from UCSC Genome Browser Gateway (http://hgdownload.soe.ucsc.edu/goldenPath/mm10/bigZips/chromFa.tar.gz), and the corresponding gene annotation file was obtained from Ensemble (ftp://ftp.ensembl.org/pub/release-83/gtf/mus_musculus/Mus_musculus.GRCm38.83.gtf.gz) on Feb. 20, 2016. Only autosomes, mitochondrial, and sex chromosomes were used. Reads were aligned using the subread v.1.6.2 aligner [Liao et al 2013]. Gene counts were obtained for each sample based on the last […] version of Ensembl transcriptome (v.87) using the featureCounts v.1.2.6 software [Liao et al 2014]. RNA-Seq counts were preprocessed and analyzed for differential expression using the edgeR v.3.24.3 [Robinson et al 2010] R package. P-values for differentially expressed genes were corrected using a false discovery rate (FDR) multiple testing correction method [Benjamini & Hochberg 1995]. Functional enrichment analysis (GO, KEGG) was performed using enrichr [Chen et al 2013]. Enrichment analysis using custom signatures was performed using hypergeometric test in the clusterProfiler v.3.10.1 R package [Yu et al 2012]. […]

The subject of assay [3] is yeast S. cerevisiae Sin3 PAH1 and PAH3 domains. The assay can be described thus: Ligand-detected NMR, yeast Sin3 PAH1 and PAH3. Format: binding. The following applies: FIG. 27. The method, then:
as §1

For the molecule `C[C@@H](NC(=O)c1c(O)n2ccccc2nc1=O)c1ccccc1` [E6R, 4-hydroxy-2-oxo-N—((R)-1-phenylethyl)-3,4-dihydro-2H-pyrido[, 2-a]pyrimidine-3-carboxamide], in assay [1], the “binding to other PAH domains of human SIN3A and SIN3B by NMR” value is listed as “can bind”. Besides, the “fewer transcriptomic changes compared to conditional Hdac2 deletion” value in assay [2] (50 mg/kg ten days) is on record as “approximately 80 fold”. Moreover, in assay [2] (HDAC2 cKO mice, 50 mg/kg), the “differentially expressed genes between HDAC2 cKO+vehicle and HDAC2 cKO+compound” value is “Nine”. In addition, in assay [2] (WT mice, 50 mg/kg I.P. daily 10 days, FDR=0.3, p<0.05, Example 9), the “genes with altered expression in mouse FC relative to WT+vehicle” value was determined as 39 genes. The “genes significantly affected in the FC” value in assay [2] (WT mice, 50 mg/kg ten days, Example 11) amounted to 48 genes. In addition, the “Homer1 expression in FC” value in assay [2] (WT mice, 50 mg/kg, vs WT+vehicle) is reported as “downregulated”. The “binding to other PAH domains of yeast Sin3 by NMR” value in assay [3] was “can bind”.
